# Test results reported in ChEMBL document CHEMBL1201862, “PubChem BioAssay data set” (2004).
# Several values for one entry are separate records, joined by “and”; a condition that tells them apart may be missing. Equal entries are not always repeated. Activity calls are given as the source filed them.
# Columns and labels:
# [1] = NIH-3T3 fibroblast cytotoxicity, dose response, cytotoxicity control for antifungal single agent project, cell-based, Alamar Blue, dry powder (AID 602188); type: functional
# [2] = Shn3 3'UTR reporter inhibitors, dose response, cell-based, Clone20 osteoblasts, firefly luciferase, cherry-picked (AID 624132); type: functional;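 also: firefly luciferase luminescence from reporter carrying the Shn3 3'UTR in osteoblasts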
# [3] = HepG2 cell cytotoxicity, dose response, cytotoxicity control for Shn3 inhibitor project, CellTiter-Glo, cherry-picked (AID 624134); type: functional, cell-based
# Protein Wnt-3a = Protein Wnt-3a (Mus musculus, UniProt P27467); assay: Wnt3a-driven reporter signaling inhibition, dose response, selectivity assay for Gli-SUFU antagonist project, Wnt-LIGHT cells, luminescence (AID 651570); type: functional; settings: read-out: IC50_Mean;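 also: Wnt-LIGHT reporter cells stimulated with conditioned medium from Wnt3a-producing cells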
# Chain of Protein Wnt-3a (P27467 whole entry): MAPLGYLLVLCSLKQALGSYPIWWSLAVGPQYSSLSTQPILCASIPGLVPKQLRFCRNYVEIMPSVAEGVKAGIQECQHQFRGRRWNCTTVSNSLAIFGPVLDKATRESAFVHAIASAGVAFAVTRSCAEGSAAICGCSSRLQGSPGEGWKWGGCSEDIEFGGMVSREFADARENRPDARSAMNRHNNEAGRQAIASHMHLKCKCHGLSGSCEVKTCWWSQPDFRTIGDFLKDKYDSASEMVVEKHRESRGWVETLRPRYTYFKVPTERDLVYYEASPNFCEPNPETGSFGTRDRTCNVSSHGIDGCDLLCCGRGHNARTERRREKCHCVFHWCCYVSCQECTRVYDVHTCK
# [4] = control 3'UTR Renilla luciferase suppression, dose response, counter-screen for Shn3 inhibitor project, cell-based, Clone20-Shn3RL, cherry-picked (AID 624133); type: functional
# [5] = biological target: Aryl hydrocarbon receptor (Homo sapiens, UniProt P35869); settings: Potency;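 also: confirmatory quantitative high-throughput screen measuring activation of the AhR signaling pathway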
# Chain of Aryl hydrocarbon receptor (P35869 whole entry): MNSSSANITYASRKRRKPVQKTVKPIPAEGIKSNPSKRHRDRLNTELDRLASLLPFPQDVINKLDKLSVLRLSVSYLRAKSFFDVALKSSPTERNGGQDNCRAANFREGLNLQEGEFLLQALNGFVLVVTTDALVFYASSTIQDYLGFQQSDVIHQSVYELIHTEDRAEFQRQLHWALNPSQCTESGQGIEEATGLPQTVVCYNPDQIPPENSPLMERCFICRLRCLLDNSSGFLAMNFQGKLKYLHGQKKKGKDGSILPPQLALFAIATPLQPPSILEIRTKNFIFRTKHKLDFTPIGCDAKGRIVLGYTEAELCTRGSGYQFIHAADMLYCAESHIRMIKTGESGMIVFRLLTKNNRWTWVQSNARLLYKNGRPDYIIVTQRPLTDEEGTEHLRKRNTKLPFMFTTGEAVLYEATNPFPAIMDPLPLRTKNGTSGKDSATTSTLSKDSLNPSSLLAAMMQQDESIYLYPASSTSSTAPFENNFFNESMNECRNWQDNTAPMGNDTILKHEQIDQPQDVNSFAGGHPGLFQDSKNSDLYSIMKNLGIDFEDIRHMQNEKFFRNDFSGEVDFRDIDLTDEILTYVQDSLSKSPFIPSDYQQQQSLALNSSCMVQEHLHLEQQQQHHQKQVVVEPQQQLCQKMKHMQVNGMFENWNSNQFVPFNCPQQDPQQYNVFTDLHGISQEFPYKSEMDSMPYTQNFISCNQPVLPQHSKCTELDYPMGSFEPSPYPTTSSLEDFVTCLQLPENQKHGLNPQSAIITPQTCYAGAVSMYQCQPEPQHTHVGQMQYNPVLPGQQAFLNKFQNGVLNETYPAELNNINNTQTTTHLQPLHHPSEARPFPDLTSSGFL
# [6] = biological target: ATP-dependent molecular chaperone HSP82 (Candida albicans (strain WO-1) (Yeast), UniProt C4YTQ8); assay: loss of DOC-induced GRE-beta-galactosidase reporter signal, dose response, Hsp90 inhibitor project, S. cerevisiae, luminescence (AID 2400); type: functional, cell-based;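 also: beta-galactosidase luminescence from glucocorticoid response element reporter as proxy for Hsp90 function; inhibitor potency where signal loss means Hsp90 inhibition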
# Chain of ATP-dependent molecular chaperone HSP82 (C4YTQ8 whole entry): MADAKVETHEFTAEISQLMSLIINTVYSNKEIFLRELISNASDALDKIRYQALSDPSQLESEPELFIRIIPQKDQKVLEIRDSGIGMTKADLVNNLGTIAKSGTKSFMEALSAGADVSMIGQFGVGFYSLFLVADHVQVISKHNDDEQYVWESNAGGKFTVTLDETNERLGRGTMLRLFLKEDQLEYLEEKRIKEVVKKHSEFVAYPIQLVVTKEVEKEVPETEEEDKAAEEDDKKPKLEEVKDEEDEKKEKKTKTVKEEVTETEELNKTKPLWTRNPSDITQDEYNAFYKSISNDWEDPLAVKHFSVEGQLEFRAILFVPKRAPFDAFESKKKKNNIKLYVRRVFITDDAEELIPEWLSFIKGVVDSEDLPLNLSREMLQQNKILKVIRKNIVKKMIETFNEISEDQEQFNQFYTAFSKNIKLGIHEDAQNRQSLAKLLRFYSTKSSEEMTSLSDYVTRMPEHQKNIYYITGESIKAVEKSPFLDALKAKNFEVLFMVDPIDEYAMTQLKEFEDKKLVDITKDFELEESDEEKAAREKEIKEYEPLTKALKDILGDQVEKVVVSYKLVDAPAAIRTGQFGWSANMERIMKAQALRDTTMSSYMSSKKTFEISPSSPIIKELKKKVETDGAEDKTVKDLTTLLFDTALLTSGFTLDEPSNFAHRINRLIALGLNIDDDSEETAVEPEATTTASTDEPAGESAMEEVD
# [7] = biological target: T1, Rac GTPase-activating protein 1 (Homo sapiens, UniProt Q9H0H5); assay: MgcRacGAP GTPase-activating activity inhibitors, confirmation, biochemical, ADP Hunter fluorescence, primary and confirmatory (AID 624330); type: functional
# T1 sequence (Q9H0H5 whole entry): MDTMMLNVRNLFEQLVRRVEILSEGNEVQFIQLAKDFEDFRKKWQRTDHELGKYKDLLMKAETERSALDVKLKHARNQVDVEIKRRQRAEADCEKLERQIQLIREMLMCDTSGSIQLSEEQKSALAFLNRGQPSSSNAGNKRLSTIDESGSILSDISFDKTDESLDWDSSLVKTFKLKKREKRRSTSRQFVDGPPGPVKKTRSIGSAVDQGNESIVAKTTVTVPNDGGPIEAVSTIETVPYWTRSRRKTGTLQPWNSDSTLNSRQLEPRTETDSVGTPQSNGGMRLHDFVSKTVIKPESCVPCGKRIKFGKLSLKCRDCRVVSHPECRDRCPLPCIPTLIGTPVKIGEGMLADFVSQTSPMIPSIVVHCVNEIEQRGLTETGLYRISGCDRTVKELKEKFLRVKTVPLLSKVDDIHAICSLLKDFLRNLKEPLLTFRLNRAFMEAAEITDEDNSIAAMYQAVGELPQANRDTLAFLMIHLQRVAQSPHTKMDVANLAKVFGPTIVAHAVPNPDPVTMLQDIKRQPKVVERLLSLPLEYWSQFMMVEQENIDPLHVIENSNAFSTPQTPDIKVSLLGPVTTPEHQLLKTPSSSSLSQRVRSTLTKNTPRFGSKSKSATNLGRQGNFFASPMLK
# Melanocortin receptor 4 = Melanocortin receptor 4 (Homo sapiens, UniProt P32245); assay: MC4R antagonist potency on cAMP, dose response, cell-based, TR-FRET, biased antagonists (AID 602298); type: functional;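 also: antagonist potency against agonist-stimulated cAMP production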
# Chain of Melanocortin receptor 4 (P32245 whole entry, the tested form may be a part): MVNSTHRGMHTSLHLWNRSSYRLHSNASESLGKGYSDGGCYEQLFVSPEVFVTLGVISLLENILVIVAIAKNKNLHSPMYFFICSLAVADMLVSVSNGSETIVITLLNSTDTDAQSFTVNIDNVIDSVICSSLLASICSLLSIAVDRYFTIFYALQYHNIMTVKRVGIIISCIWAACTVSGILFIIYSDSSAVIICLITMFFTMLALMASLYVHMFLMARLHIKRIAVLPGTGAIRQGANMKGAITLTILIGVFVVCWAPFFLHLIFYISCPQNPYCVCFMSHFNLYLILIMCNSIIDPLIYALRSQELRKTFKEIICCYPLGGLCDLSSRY
# [8] = biological target: Hepatocyte nuclear factor 4-alpha (Homo sapiens, UniProt P41235); type: functional, cell-based;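 also: biochemical luminescence-based dose-response counterscreen measuring inhibition of HNF4 dimerization, run alongside a screen for blockers of ABHD5–perilipin-5 interaction; split luciferase complementation of HNF4 fusion proteins in cell lysate measuring dimerization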
# Chain of Hepatocyte nuclear factor 4-alpha (P41235 whole entry, the tested form may be a part): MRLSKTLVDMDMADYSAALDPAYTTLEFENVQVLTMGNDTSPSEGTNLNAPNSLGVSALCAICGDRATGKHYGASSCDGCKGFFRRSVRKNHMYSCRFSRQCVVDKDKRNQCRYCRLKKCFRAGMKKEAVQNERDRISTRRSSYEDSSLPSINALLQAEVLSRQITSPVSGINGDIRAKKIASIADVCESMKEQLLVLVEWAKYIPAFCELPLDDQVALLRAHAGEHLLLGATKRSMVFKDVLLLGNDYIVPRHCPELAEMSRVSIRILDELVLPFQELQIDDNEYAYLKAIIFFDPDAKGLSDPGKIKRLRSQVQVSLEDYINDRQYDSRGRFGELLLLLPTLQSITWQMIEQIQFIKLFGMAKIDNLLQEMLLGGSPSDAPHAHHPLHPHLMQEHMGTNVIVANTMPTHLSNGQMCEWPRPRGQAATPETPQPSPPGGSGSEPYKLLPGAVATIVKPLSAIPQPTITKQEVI
# CAAX prenyl protease 2 [9] = biological target: T2, CAAX prenyl protease 2 (Saccharomyces cerevisiae S288c, UniProt Q03530); type: biochemical
# T2 sequence (Q03530 whole entry): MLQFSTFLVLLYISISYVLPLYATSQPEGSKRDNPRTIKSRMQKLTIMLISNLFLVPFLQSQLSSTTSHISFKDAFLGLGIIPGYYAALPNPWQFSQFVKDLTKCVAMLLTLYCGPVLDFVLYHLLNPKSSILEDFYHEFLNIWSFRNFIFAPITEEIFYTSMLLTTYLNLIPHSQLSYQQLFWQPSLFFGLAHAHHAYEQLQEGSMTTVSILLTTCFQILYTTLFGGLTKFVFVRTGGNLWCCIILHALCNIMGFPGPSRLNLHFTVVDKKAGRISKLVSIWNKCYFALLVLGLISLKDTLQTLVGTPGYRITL
# [10] = biological target: T3, DNA repair protein RAD52 homolog (Homo sapiens, UniProt P43351); type: functional, biochemical
# T3 sequence (P43351 whole entry): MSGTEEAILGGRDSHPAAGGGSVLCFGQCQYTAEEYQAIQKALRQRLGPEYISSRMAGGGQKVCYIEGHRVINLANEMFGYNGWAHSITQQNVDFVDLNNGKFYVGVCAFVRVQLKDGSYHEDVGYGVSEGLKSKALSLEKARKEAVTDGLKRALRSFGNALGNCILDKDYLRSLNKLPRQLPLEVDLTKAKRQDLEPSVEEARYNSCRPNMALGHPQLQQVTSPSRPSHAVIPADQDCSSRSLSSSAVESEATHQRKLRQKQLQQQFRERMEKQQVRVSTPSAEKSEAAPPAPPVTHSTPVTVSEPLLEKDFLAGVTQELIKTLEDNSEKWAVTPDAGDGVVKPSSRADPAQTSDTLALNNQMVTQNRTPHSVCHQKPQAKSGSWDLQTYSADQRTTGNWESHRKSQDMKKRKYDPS
# CAAX prenyl protease 2 [11] = biological target: CAAX prenyl protease 2 (Homo sapiens, UniProt Q9Y256); assay: human Rce1 protease inhibitors, dose response, biochemical, yeast membranes, quenched-peptide fluorescence, cherry-pick (AID 588849)
# Chain of CAAX prenyl protease 2 (Homo sapiens, UniProt Q9Y256) (Q9Y256 whole entry): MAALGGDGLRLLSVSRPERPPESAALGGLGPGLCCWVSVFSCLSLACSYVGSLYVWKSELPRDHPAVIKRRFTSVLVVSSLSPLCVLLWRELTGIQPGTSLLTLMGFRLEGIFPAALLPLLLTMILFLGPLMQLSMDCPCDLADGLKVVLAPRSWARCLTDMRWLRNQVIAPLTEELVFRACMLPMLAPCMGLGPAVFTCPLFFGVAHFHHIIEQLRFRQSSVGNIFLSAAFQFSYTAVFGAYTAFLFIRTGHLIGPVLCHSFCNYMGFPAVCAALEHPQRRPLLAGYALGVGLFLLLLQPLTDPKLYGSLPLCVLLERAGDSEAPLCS
# Interleukin-8 = Interleukin-8 (Homo sapiens, UniProt P10145); assay: Dose Response confirmation of uHTS small molecule hits for cystic fibrosis induced NFkb Inhibitors in a PAF-induced IL8 counterscreen.; type: functional; settings: read-out: IC50_Mean
# Chain of Interleukin-8 (P10145 whole entry): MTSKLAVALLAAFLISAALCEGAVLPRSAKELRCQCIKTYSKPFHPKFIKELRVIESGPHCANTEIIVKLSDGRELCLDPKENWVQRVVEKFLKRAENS
compound,measurement,setting,value
O=C(Nc1nc(-c2ccccn2)cs1)c1ccccc1,AC50,[1],7.19 µM (active)
COCCOc1nc2c(c(=O)n(C)c(=O)n2C)n1Cc1cccc(OC)c1,AC50,[2],2.23 µM (active)
same,AC50,[3],59.9 µM (active)
same,IC50,Protein Wnt-3a,6.29 µM (active)
same,AC50,[4],4.09 µM (active)
Nc1ccc(N)c(Cl)c1,AC50,[5],31.6 µM (inconclusive)
[H]/N=C(\N/C(=N/[H])NCCCCCCNC(=N)NC(=N)Nc1ccc(Cl)cc1)Nc1ccc(Cl)cc1,EC50,[6],19.8 µM (active) and > 160 µM (inactive)
same,IC50,[7],42.3 µM (active)
same,IC50,Melanocortin receptor 4,1.55 µM (active)
same,IC50,[8],21.4 µM (inactive)
same,AC50,CAAX prenyl protease 2 [9],23.1 µM (active)
same,AC50,[10],17.4 µM (active)
same,AC50,CAAX prenyl protease 2 [11],12.9 µM (active)
Cc1ccc2occ(/C=N/NC(=O)c3ccccc3Br)c(=O)c2c1,IC50,Interleukin-8,3.77 µM (active)
